Source: patent US4218562A, “Antibiotic derivatives of XK-62-2” (Abbott Laboratories, priority 1978, dated 1980)
≈ marks a conversion by molar mass, not a printed value. Where two headings read alike, the source gives them in different places.

Key:
[1] = system: strains of Escherichia coli having an R factor; test: Anti-bacterial activity against Escherichia coli having an R factor; format: cell-based; conditions: E. coli having an R factor which shows resistance to known aminoglycoside antibiotics
[2] = system: Escherichia coli KY 8327; test: Agar dilution MIC, pH 8.0: Escherichia coli KY 8327; format: cell-based
Source text: (§1) The former bacterium inactivates kanamycins and gentamicins by adenylation, and the latter inactivates gentamicins by acetylation.

[3] = system: Escherichia coli ATCC 26; test: Agar dilution MIC, pH 8.0: Escherichia coli ATCC 26; format: cell-based
[4] = system: Salmanella typhosa ATCC 9992; test: microbe, parasite or virus in culture; format: cell-based
[5] = system: Proteus vulgaris ATCC 6897; test: Agar dilution MIC, pH 8.0: Proteus vulgaris ATCC 6897; format: cell-based
[6] = system: Krobsiella pneumoniae ATCC 10081; test: Agar dilution MIC, pH 8.0: Krobsiella pneumoniae ATCC 10081; format: cell-based
[7] = system: Shigella seanei ATCC 9250; test: microbe, parasite or virus in culture; format: cell-based
[8] = system: Staphylococcus aureus ATCC 6538P; test: Agar dilution MIC, pH 8.0: Staphylococcus aureus ATCC 6538P; format: cell-based; conditions: ATCC6538P
[9] = system: Bacillus subtilis No. 10707; test: Agar dilution MIC, pH 8.0: Bacillus subtilis No. 10707; format: cell-based
[10] = system: Pseudomanas aeruginosa BMH 1; test: Agar dilution MIC, pH 8.0: Pseudomonas aeruginosa BMH 1; format: cell-based
[11] = system: Escherichia coli KY 8348; test: Agar dilution MIC, pH 8.0: Escherichia coli KY 8348; format: cell-based
Source text: as §1

[12] = system: Escherichia coli T-5; test: Agar dilution MIC, pH 7.2: Escherichia coli T-5; format: cell-based; conditions: T5, pH 7.2, read-out: Minimum Inhibitory Concentration
[13] = system: Pseudomonas aeruginosa KY 8516; test: Agar dilution MIC, pH 7.2: Pseudomonas aeruginosa KY 8516; format: cell-based; conditions: KY8516, pH 7.2, read-out: Minimum Inhibitory Concentration
[14] = system: staphylococcus aureus Smith; test: Agar dilution MIC, pH 7.2: Staphylococcus aureus Smith; format: cell-based; conditions: pH 7.2, read-out: Minimum Inhibitory Concentration
[15] = system: Sarcina lucca ATCC 9341; test: Agar dilution MIC, pH 7.2: Sarcina lucca ATCC 9341; format: cell-based; conditions: ATCC9341, pH 7.2, read-out: Minimum Inhibitory Concentration
[16] = system: Proteus vulgaris 6897; test: Agar dilution MIC, pH 7.2: Proteus vulgaris 6897; format: cell-based; conditions: Proteus vulgaris, 6897, pH 7.2, read-out: Minimum Inhibitory Concentration
[17] = system: Pseudomonas aeruginosa BMH No. 1; test: Agar dilution MIC, pH 7.2: Pseudomonas aeruginosa BMH No. 1; format: cell-based
[18] = system: Klebsiella pneumoniae No. 8045; test: Agar dilution MIC, pH 7.2: Klebsiella pneumoniae No. 8045; format: cell-based; conditions: NO.8045, pH 7.2, read-out: Minimum Inhibitory Concentration
[19] = system: Proteus marganii KY 4298; test: Agar dilution MIC, pH 7.2: Proteus marganii KY 4298; format: cell-based
[20] = system: Escherichia coli KY 8321; test: Agar dilution MIC, pH 7.2: Escherichia coli KY 8321; format: cell-based; conditions: KY8321, pH 7.2, read-out: Minimum Inhibitory Concentration
[21] = system: Proteus Mirabilis 1287; test: Agar dilution MIC, pH 7.2: Proteus Mirabilis 1287; format: cell-based; conditions: pH 7.2, read-out: Minimum Inhibitory Concentration
[22] = system: Bacillus subtillus ATCC 6688; test: Agar dilution MIC, pH 7.2: Bacillus subtillus ATCC 6688; format: cell-based
[23] = system: staphylococcus aureus 209P; test: Agar dilution MIC, pH 7.2: Staphylococcus aureus 209P; format: cell-based; conditions: pH 7.2, read-out: Minimum Inhibitory Concentration
[24] = system: Pseudomonas aeruginosa KY 8511; test: Agar dilution MIC, pH 7.2: Pseudomonas aeruginosa KY 8511; format: cell-based; conditions: KY8511, pH 7.2, read-out: Minimum Inhibitory Concentration
[25] = system: Pseudomonas aeruginosa KY 8510; test: Agar dilution MIC, pH 7.2: Pseudomonas aeruginosa KY 8510; format: cell-based; conditions: KY8510, pH 7.2, read-out: Minimum Inhibitory Concentration
[26] = system: Pseudomonas aeruginosa KY 8512; test: Agar dilution MIC, pH 7.2: Pseudomonas aeruginosa KY 8512; format: cell-based; conditions: KY8512, pH 7.2, read-out: Minimum Inhibitory Concentration
Source text: ^7 produces neamycinkanamycin phosphotransferase Type

[27] = system: Escherichia coli T-2; test: Agar dilution MIC, pH 7.2: Escherichia coli T-2; format: cell-based; conditions: T2, pH 7.2, read-out: Minimum Inhibitory Concentration
[28] = Solubility; format: physicochemical
[29] = ATCC26, agar-dilution method, pH 8.0, read-out: Minimum Inhibitory Concentration
[30] = agar-dilution method, pH 8.0, read-out: Minimum Inhibitory Concentration
[31] = ATCC6897, agar-dilution method, pH 8.0, read-out: Minimum Inhibitory Concentration
[32] = ATCC9250, agar-dilution method, pH 8.0, read-out: Minimum Inhibitory Concentration
[33] = pH 8, read-out: Minimum Inhibitory Concentration

CNC[C@@H]1CC[C@@H](NC(=O)[C@@H](O)CCN)[C@@H](O[C@H]2[C@H](O)[C@@H](O[C@H]3OC[C@](C)(O)[C@H](NC)[C@H]3O)[C@H](N)C[C@@H]2NC(=O)[C@@H](O)CCN)O1 [IV, 3-N-2'-N-bis[L-(-)-α-hydroxy-γ-aminobutyryl]XK-62-2]
anti-bacterial activity [1]: strong anti-bacterial activity | MIC ([2]; Escherichia coli, KY8327, agar-dilution method, pH 8.0, strain produces gentamicin adenyltransferase, read-out: Minimum Inhibitory Concentration): 0.26 µg/mL (≈ 0.391 µM) | anti-bacterial activity ([2]; comparison of MIC in Table 1, E. coli KY 8327): strong anti-bacterial activity | MIC [3, 29]: 0.13 µg/mL (≈ 0.195 µM) | MIC [4, 30]: 0.13 µg/mL (≈ 0.195 µM) | MIC [5, 31]: 0.521 µg/mL (≈ 0.783 µM) | MIC [6, 30]: 0.065 µg/mL (≈ 0.0976 µM) | MIC [7, 32]: 0.26 µg/mL (≈ 0.391 µM) | MIC [8, 30]: 0.13 µg/mL (≈ 0.195 µM) | MIC ([9]; NO.10707, agar-dilution method, pH 8.0, read-out: Minimum Inhibitory Concentration): 0.016 µg/mL (≈ 0.024 µM) | MIC ([10]; BMH1, agar-dilution method, pH 8.0, read-out: Minimum Inhibitory Concentration): 8.34 µg/mL (≈ 12.5 µM) | MIC ([11]; Escherichia coli, KY8348, agar-dilution method, pH 8.0, strain produces gentamicin acetyltransferase Type I, read-out: Minimum Inhibitory Concentration): 0.13 µg/mL (≈ 0.195 µM) | anti-bacterial activity ([11]; comparison of MIC in Table 1, E. coli KY 8348): strong anti-bacterial activity

NC[C@H]1O[C@H](O[C@H]2[C@H](O)[C@@H](O[C@H]3O[C@H](CO)[C@@H](O)[C@H](N)[C@H]3O)[C@H](N)C[C@@H]2N)[C@H](O)[C@@H](O)[C@@H]1O [Kanamycin A, kanamycin A]
MIC [12]: 1.56 µg/mL (≈ 3.22 µM) | MIC [13]: > 100 µg/mL | MIC [14]: 0.2 µg/mL (≈ 0.413 µM) | MIC ([3]; ATCC26, pH 8, read-out: Minimum Inhibitory Concentration): 0.16 µg/mL (≈ 0.33 µM) | MIC [15]: 6.25 µg/mL (≈ 12.9 µM) | MIC [4, 33]: 0.088 µg/mL (≈ 0.182 µM) | MIC ([5]; ATCC6897, pH 8, read-out: Minimum Inhibitory Concentration): 0.16 µg/mL (≈ 0.33 µM) | MIC [6, 33]: 0.042 µg/mL (≈ 0.0867 µM) | MIC [16]: 3.12 µg/mL (≈ 6.44 µM) | MIC ([17]; BMHNO.1, pH 7.2, read-out: Minimum Inhibitory Concentration): 12.5 µg/mL (≈ 25.8 µM) | MIC [18]: 0.4 µg/mL (≈ 0.826 µM) | MIC ([19]; pH 7.2, read-out: Minimum Inhibitory Concentration): 1.56 µg/mL (≈ 3.22 µM) | MIC [20]: 100 µg/mL (≈ 206 µM) | MIC [21]: 6.25 µg/mL (≈ 12.9 µM) | MIC ([22]; ATCC6688, pH 7.2, read-out: Minimum Inhibitory Concentration): 0.2 µg/mL (≈ 0.413 µM) | MIC ([7]; ATCC9250, pH 8, read-out: Minimum Inhibitory Concentration): 0.16 µg/mL (≈ 0.33 µM) | MIC [8, 33]: 0.021 µg/mL (≈ 0.0433 µM) | MIC [23]: 0.2 µg/mL (≈ 0.413 µM) | MIC ([9]; NO.10707, pH 8, read-out: Minimum Inhibitory Concentration): 0.021 µg/mL (≈ 0.0433 µM) | MIC ([10]; BMH1, pH 8, read-out: Minimum Inhibitory Concentration): 5.2 µg/mL (≈ 10.7 µM) | MIC [24]: 100 µg/mL (≈ 206 µM) | MIC [25]: 100 µg/mL (≈ 206 µM) | MIC [26]: 12.5 µg/mL (≈ 25.8 µM) | MIC [27]: 1.56 µg/mL (≈ 3.22 µM)

CNC[C@@H]1CC[C@@H](N)[C@@H](O[C@H]2[C@H](O)[C@@H](O[C@H]3OC[C@](C)(O)[C@H](NC)[C@H]3O)[C@H](N)C[C@@H]2N)O1 [XK-62-2]
MIC [3, 29]: 0.016 µg/mL (≈ 0.0345 µM) | MIC [15]: 0.4 µg/mL (≈ 0.863 µM) | MIC [4, 30]: 0.008 µg/mL (≈ 0.0173 µM) | MIC [5, 31]: 0.033 µg/mL (≈ 0.0712 µM) | MIC [6, 30]: 0.004 µg/mL (≈ 0.00863 µM) | solubility ([28]; in chloroform, benzene, ethyl acetate and n-hexane): insoluble | solubility ([28]; in ethanol and acetone): slightly soluble | solubility ([28]; in water and methanol): well soluble | MIC ([17]; BMHNO.1, agar dilution method, pH 7.2, read-out: Minimum Inhibitory Concentration): 0.78 µg/mL (≈ 1.68 µM) | MIC ([19]; agar dilution method, pH 7.2, read-out: Minimum Inhibitory Concentration): 0.4 µg/mL (≈ 0.863 µM) | MIC ([22]; ATCC6688, agar dilution method, pH 7.2, read-out: Minimum Inhibitory Concentration): < 0.05 µg/mL | MIC [7, 32]: 0.033 µg/mL (≈ 0.0712 µM)
